Source: US20250144067A1, “PERSONALIZED STARVATION THERAPY FOR CANCER” (Faeth Therapeutics, Inc., priority 2021, published 2025)
Structures can show the parent of a compound that is named as a salt.

Tests used:
[1] = test system: NCI-H292 lung cancer cells; assay: FDA drug screening, complete media vs cholesterol-free media without statin (TABLE 1); format: cell-based, human
[2] = test system: NCI-H292 lung cancer cells; assay: FDA drug screening, complete media vs cholesterol-free media with simvastatin (TABLE 2); format: cell-based, human; settings: for Cholesterol-free media + simvastatin (0.04 μM) / Complete Media: NCI-H292 cells
[3] = Complete minus Cholesterol-free, […]
[4] = NCI-H292 cells, cholesterol-free media without statin
[5] = FDA library drug in cholesterol-free media with simvastatin 0.04 μM
[6] = FDA library drug in complete media
[7] = complete vs cholesterol-free media, greater than 0 enhanced anti-cancer activity, about 0 neutral, below 0 antagonists
[8] = FDA drug library screen, cholesterol-free media with simvastatin 0.04 μM
[9] = FDA drug library screen, complete media
[10] = complete media vs cholesterol-free media + simvastatin (0.04 μM), >0 enhanced anti-cancer activity, about 0 neutral, <0 antagonist
[11] = NCI-H292 cells, cholesterol-free media without statin, FDA drug library screen
[12] = NCI-H292 cells, complete media, FDA drug library screen
[13] = cholesterol-free media with simvastatin 0.04 μM, FDA drug library screen (TABLE 2)
[14] = complete media, FDA drug library screen (TABLE 2)
[15] = complete media minus cholesterol-free media + simvastatin (0.04 μM), […]
[16] = Complete minus Cholesterol-free, greater than 0 enhanced anti-cancer activity, about 0 neutral, below 0 antagonists
[17] = NCI-H292 cells in cholesterol-free media without statin
[18] = NCI-H292 cells in complete media
[19] = complete media minus cholesterol-free media + simvastatin (0.04 μM), >0 enhanced anti-cancer activity, about 0 neutral, <0 antagonist
[20] = Complete minus Cholesterol-free, >0 enhanced anti-cancer activity, about 0 neutral, <0 antagonist
[21] = cholesterol-free media with simvastatin 0.04 μM, cell growth value in FDA drug screen
[22] = complete media, cell growth value in FDA drug screen
[23] = complete media minus cholesterol-free media + simvastatin, >0 enhanced anti-cancer activity, about 0 neutral, <0 antagonist

Compound	Cholesterol-free [1, 4]	Complete ([1]; NCI-H292 cells, complete media)	Cholesterol-free media + simvastatin (0.04 μM) [2, 8]	Difference [2, 10]	Cholesterol-free [1, 11]	Complete [1, 12]	Cholesterol-free media + simvastatin (0.04 μM) [2, 13]	Difference [1, 20]	also measured
Cc1cc(NS(=O)(=O)c2ccc(N)cc2)nc(C)n1 [Sulfisomidin]	1.055	0.8471							Difference [1, 3]: −0.21; Cholesterol-free media + simvastatin (0.04 μM) [2, 5]: 1.147; Complete Media [2, 6]: 0.7862; Difference ([2]; complete media vs cholesterol-free media + simvastatin (0.04 μM), […]): −0.36
Cc1noc(NS(=O)(=O)c2ccc(N)cc2)c1C [Sulfisoxazole]	1.273	0.8703	1.12	−0.08					Difference [1, 7]: −0.40; Complete Media [2, 9]: 1.045
COc1cc(S(=O)(=O)[O-])ccc1O.[K+] [Sulfogaiacol]					0.8896	0.8811	0.9781		Difference [1, 3]: −0.01; Complete Media [2, 14]: 0.9488; Difference [2, 15]: −0.03
CC1=C(CC(=O)O)c2cc(F)ccc2/C1=C\c1ccc([S+](C)[O-])cc1 (stereo not shown) [Sulindac]							1.193		Difference [1, 16]: −0.48; Cholesterol-free [1, 17]: 1.336; Complete [1, 18]: 0.8519; Difference [2, 19]: −0.02
CCN1CCCC1CNC(=O)c1cc(S(N)(=O)=O)ccc1OC (stereo not shown) [Sulpiride]	1.254	1.03					1.077	−0.22	Complete Media [2, 14]: 1.053; Difference [2, 19]: −0.02
CCN(CC)CCNC(=O)c1c(C)[nH]c(/C=C2\C(=O)Nc3ccc(F)cc32)c1C [Sunitinib]				−0.36	0.5331	0.523		−0.01	Cholesterol-free media + simvastatin (0.04 μM) [2, 5]: 1.48; Complete Media [2, 6]: 1.121
CCOCC(O)COc1ccc(NC(=O)CC[S+](C)C)cc1.Cc1ccc(S(=O)(=O)[O-])cc1 (stereo not shown) [Suplatast (Tosilate)]			2.447		0.9586	1.127			Difference ([1]; complete vs cholesterol-free media, […]): 0.17; Difference [2, 15]: −0.95
CC(C(=O)O)c1ccc(C(=O)c2cccs2)cc1 (stereo not shown) [Suprofen]	1.108	0.8283						−0.28	Cholesterol-free media + simvastatin (0.04 μM) [2, 21]: 0.9436; Complete Media [2, 22]: 0.9637; Difference [2, 23]: 0.02
Cc1ccc(C(=O)Nc2ccc(S(=O)(=O)O)c3cc(S(=O)(=O)O)cc(S(=O)(=O)O)c23)cc1NC(=O)c1cccc(NC(=O)Nc2cccc(C(=O)Nc3cc(C(=O)Nc4ccc(S(=O)(=O)O)c5cc(S(=O)(=O)O)cc(S(=O)(=O)O)c45)ccc3C)c2)c1 [Suramin (sodium salt)]				−0.33					Difference [1, 16]: −0.70; Cholesterol-free [1, 17]: 1.64; Complete [1, 18]: 0.9404; Cholesterol-free media + simvastatin (0.04 μM) [2, 5]: 1.303; Complete Media [2, 6]: 0.9716
Nc1c2c(nc3ccccc13)CCCC2 [Tacrine (hydrochloride)]	1.218	0.7601	1.139	−0.08					Difference [1, 7]: −0.46; Complete Media [2, 9]: 1.054
Nc1c2c(nc3ccccc13)CCCC2 [Tacrine hydrochloride hydrate]					1.254	1.477	1.406		Difference ([1]; complete vs cholesterol-free media, >0 enhanced anti-cancer activity, about 0 neutral, <0 antagonist): 0.22; Complete Media [2, 14]: 1.383; Difference [2, 19]: −0.02
C=CC[C@@H]1/C=C(\C)C[C@H](C)C[C@H](OC)[C@H]2O[C@@](O)(C(=O)C(=O)N3CCCC[C@H]3C(=O)O[C@H](/C(C)=C/[C@@H]3CC[C@@H](O)[C@H](OC)C3)[C@H](C)[C@@H](O)CC1=O)[C@H](C)C[C@@H]2OC [Tacrolimus (monohydrate)]	1.012	0.7533						−0.26	Cholesterol-free media + simvastatin (0.04 μM) [2, 21]: 1.131; Complete Media [2, 22]: 1.225; Difference [2, 23]: 0.09
CN1CC(=O)N2[C@H](c3ccc4c(c3)OCO4)c3[nH]c4ccccc4c3C[C@@H]2C1=O [Tadalafil]	1.298	0.971	1.05	−0.08					Difference [1, 7]: −0.33; Complete Media [2, 9]: 0.9711
